According to US20050009813A1 (priority 2001, published 2005):
Where “and” joins values, the source holds several entries; their conditions need not be identical. Equal entries are not always repeated. Structures can show the parent of a compound that is named as a salt.

What was measured:
[1] = system: behavioural despair (acquired immobility); assay: Forced Swimming Test (Porsolt Swimming Test) on rats; assay type: in vivo, rat (Sprague Dawley); conditions: for Change relative to control group (acquired immobility) / Acquired Immobility (group mean value in minutes ± standard dev.): rat, SD strain; for Acquired Immobility (group mean value in minutes ± standard dev.): three administrations, 5 min test
Experimental: To verify whether this MAO-A-inhibitory action in vivo is relevant, deoxypeganine was tested in the “Forced Swimming Test” on rats (R. D. Porsolt et al., Nature 1977; 266(5604): 730-732). […] The time spent with attempts at escape until the animals fall into this psychomotorical inactivation (considered to be a surrogate for depression) is measured; prolonged activity corresponds to antidepressive action.
In the concrete case, […], about 6 weeks old (strain Sprague Dawley); acquired from Charles River UK Ltd.) were divided into 7 groups with 10 animals each. On the first day, after termination of the habituation phase, each animal was placed for 10 minutes in a cylindrical vessel filled about 15 cm high with 25°-warm water; this was followed, after one hour, 19 hours, and 23 hours, by three oral administrations of (depending on the group) either negative control (water), 15 mg/kg positive control (imipramine.HCl), or deoxypeganine.HCl in dosages of 1.0, 2.5, 7.5, 15.0 or 22.5 mg/kg of bodyweight. The volume, administered with the aid of a gastric tube, was in each case 5 ml/kg of bodyweight. One hour after the third of these treatments, each animal was again placed in the vessel for exactly 5 minutes and the time spent in minimal mobility was measured.

[2] = biological target: T1, monoamino oxidase A from rat brain (Rattus norvegicus, UniProt P21396); assay: Inhibition of monoamino oxidase A from rat brain, [3H]serotonine substrate (Medvedev et al.); assay type: biochemical, rat (Wistar strain); conditions: rat brain MAO-A; 95 μM [3H]serotonine; 1% DMSO in 20 mM potassium dihydrogenphosphate buffer pH 7.4; 10 nM to 10 μM; read-out: semi-maximal inhibitory action (IC50), monoamino oxidase A
T1 sequence (P21396 1-526): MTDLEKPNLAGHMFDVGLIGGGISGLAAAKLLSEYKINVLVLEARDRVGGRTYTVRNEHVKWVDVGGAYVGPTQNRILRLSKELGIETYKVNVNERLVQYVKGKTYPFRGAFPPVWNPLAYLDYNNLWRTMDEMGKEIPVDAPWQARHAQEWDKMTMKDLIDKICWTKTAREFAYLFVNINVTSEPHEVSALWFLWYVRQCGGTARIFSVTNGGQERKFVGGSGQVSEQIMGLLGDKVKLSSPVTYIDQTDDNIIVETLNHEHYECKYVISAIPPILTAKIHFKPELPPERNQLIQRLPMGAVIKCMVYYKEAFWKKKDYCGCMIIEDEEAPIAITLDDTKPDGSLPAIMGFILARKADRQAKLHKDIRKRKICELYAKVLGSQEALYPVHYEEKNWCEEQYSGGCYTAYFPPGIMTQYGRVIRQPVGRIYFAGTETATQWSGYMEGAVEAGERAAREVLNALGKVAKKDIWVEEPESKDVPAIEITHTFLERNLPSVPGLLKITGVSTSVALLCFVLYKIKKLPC
Experimental: The inhibitory action of deoxypeganine in respect of monoamino oxidase A from rat brain (Wistar strain) was measured in the concentration range of from 10 nM to 10 μM according to the method described by Medvedev et al. (Biochem Pharmacol 1994; 47(2): 303-308) and compared with clorogyline as the positive control, whereby in both cases 95 μM [^3H]serotonine in a solution of 1% dimethylsulfoxide in 20 mM of potassium dihydrogenphosphate buffer pH 7.4 served as substrate.

[3] = system: cholinergic memory deficits; assay: Compensation of cholinergic memory deficits in rats with partially destroyed central cholinergic pathways; assay type: in vivo
Excerpt: It can be inferred therefrom that the effect observable in the swimming test reaches its maximum at a fraction of the dose necessary for maximal activation of the cholinergic system, which according to the state of the art could not be reckoned with.

Monoamino oxidase B = biological target: T2, Monoamino oxidase B (Rattus norvegicus, UniProt P19643); assay: Inhibition of monoamino oxidase B
T2 sequence (P19643 1-520): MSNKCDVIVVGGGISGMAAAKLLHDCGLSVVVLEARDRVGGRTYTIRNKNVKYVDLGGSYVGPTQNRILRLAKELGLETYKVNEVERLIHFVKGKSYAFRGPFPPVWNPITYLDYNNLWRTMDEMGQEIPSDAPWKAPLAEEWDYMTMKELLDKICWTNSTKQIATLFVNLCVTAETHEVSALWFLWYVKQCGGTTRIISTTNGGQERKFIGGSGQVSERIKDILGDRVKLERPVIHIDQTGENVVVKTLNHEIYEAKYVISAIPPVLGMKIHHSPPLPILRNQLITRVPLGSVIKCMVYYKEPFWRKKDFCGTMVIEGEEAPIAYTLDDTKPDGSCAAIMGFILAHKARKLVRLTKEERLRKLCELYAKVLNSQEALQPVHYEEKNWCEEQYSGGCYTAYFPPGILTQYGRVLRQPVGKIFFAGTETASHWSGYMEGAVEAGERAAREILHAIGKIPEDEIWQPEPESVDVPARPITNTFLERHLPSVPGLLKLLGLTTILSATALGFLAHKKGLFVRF

psychomotoric activation = assay: Open Field Paradigma; assay type: in vivo, Sprague-Dawley rats; conditions: treatment for 2 weeks, daily doses of 2.5 to 22.5 mg/kg
Excerpt: Since such results can in principle also be obtained by psychomotorically activating substances which have no anti-depressive action, the effect of deoxypeganine was also examined, with the same dose range, in the so-called Open Field Paradigma. Here one makes use of the fact that it is stressful for rats to stay in an open, bright area, and therefore such situations are avoided by the rats if possible.

SMILES: CN(C)CCCN1c2ccccc2CCc2ccccc21 [imipramine HCl, reference compound]
- Change relative to control group (acquired immobility) ([1]; 15 mg/kg p.o., HCl): −56.5% and −58.9%

SMILES: c1ccc2c(c1)CN1CCCC1=N2 [deoxypeganine, 1,2,3,9-tetrahydropyrrolo[2,1-b]quinazoline]
- IC50 [2]: 1490 nM
- compensation of cholinergic memory deficits, in words ([3]; 22.5 mg/kg oral): had not yet reached its maximum value
- compensation of cholinergic memory deficits, in words ([3]; oral dose of 7.5 mg/kg): not yet statistically significant
- effectiveness in forced swimming test, in words ([1]; 2.5 mg/kg): only partially effective
- effectiveness in forced swimming test, in words ([1]; dose of 1 mg/kg): not yet effective
- dose of maximal action in the Porsolt test ([1]; p.o., comparable to the antidepressant imipramine): 7.5 mg/kg
- inhibition of Type B enzyme (MAO-B), in words (Monoamino oxidase B; in vitro): not significantly inhibited
- inhibition at 10 µM (Monoamino oxidase B; read-out: inhibition of monoamino oxidase B): 15 to 20%
- psychomotoric activation in open field, in words (psychomotoric activation): no indication of psychomotoric activation

SMILES: Cl.c1ccc2c(c1)CN1CCCC1=N2 [deoxypeganine hydrochloride]
- Acquired Immobility (group mean value in minutes ± standard dev.) ([1]; 1.0 mg/kg p.o.): 3.46 ± 0.83 min
- Change relative to control group (acquired immobility) ([1]; 1.0 mg/kg p.o.): +0.3%
- Acquired Immobility (group mean value in minutes ± standard dev.) ([1]; 2.5 mg/kg p.o.): 2.80 ± 1.02 min
- Change relative to control group (acquired immobility) ([1]; 2.5 mg/kg p.o.): −18.8%
- Change relative to control group (acquired immobility) ([1]; 7.5 mg/kg p.o., hydrochloride): −47.2% and −41.4%
- Change relative to control group (acquired immobility) ([1]; 15 mg/kg p.o.): −44.1%
- Change relative to control group (acquired immobility) ([1]; 22.5 mg/kg p.o.): −43.8%
